Data reported in the Deep4Chem optical property database.
Where “and” joins values, the source holds several entries; their conditions need not be identical. Equal entries are not always repeated. Blank lines part the entries; values can stand above or below the compound they belong to.

Experiment: solvent given as SMILES

SMILES: O=C1c2ccccc2-c2ccc(N3CCN(c4ccccc4)CC3)c3cccc1c23
absorption maximum (in C1CCCCC1): 423 nm
absorption maximum (in C1CCOC1): 438 nm
absorption maximum (in C1COCCO1): 436.2 nm
absorption maximum (in CC1COC(=O)O1): 445.6 nm
absorption maximum (in CC#N): 444 nm
absorption maximum (in CC(C)=O): 441.2 nm
absorption maximum (in CCCCCCCCO): 445 nm
absorption maximum (in CCCCCO): 446 nm
absorption maximum (in CCCCO): 444 nm
absorption maximum (in CCCO): 445 nm
absorption maximum (in CCO): 446.8 nm
absorption maximum (in CCOC(C)=O): 436 nm
absorption maximum (in CN(C)C=O): 447.2 nm
absorption maximum (in CO): 445 nm
absorption maximum (in CS(C)=O): 452 nm
absorption maximum (in Cc1ccccc1): 435.8 nm
absorption maximum (in ClC(Cl)Cl): 443 nm

SMILES: CCCCc1cc(-c2cccc(COC)c2)oc1-c1cccc(-c2oc(-c3cccc(COC)c3)cc2CCCC)c1
absorption maximum (in ClC(Cl)Cl): 334 nm

SMILES: COC(=O)c1cc(/N=N/c2cc3c4c(c2)CCCN4CCC3)cc(C(=O)OC)c1
absorption maximum (in CCOC(C)=O): 471 nm

SMILES: CCn1c2ccccc2sc2c(C#N)c3oc4ccccc4oc3c(C#N)c21
absorption maximum (in ClC(Cl)Cl): 460 nm

SMILES: O=c1oc2ccc(Cl)cc2cc1-c1cc2cc(Cl)ccc2o1
absorption maximum (in CC#N): 369 nm
absorption maximum (in CCOC(C)=O): 370 nm
absorption maximum (in CS(C)=O): 373 nm
absorption maximum (in Cc1ccccc1): 375 nm
absorption maximum (in O): 327 nm

SMILES: Fc1cc(-c2nc(-c3ccccc3)nc(-c3ccccc3)n2)ccc1-n1c2ccccc2c2c3c(ccc21)C1(c2ccccc2-c2ccccc21)c1ccccc1-3
absorption maximum (in Cc1ccccc1): 370 nm

SMILES: CCN(CC)c1ccc(/C=N/c2cc3nc4ccccc4nc3cc2/N=C/c2ccc(N(CC)CC)cc2O)c(O)c1
absorption maximum (in CC#N): 451 nm
absorption maximum (in CN(C)C=O): 488 nm
absorption maximum (in ClCCl): 476 nm

SMILES: O=c1cc(-c2ccccc2)oc(-c2nc3ccccn3c2NC2CCCCC2)c1
absorption maximum (in ClCCl): 353 nm

SMILES: c1ccc(-c2cc(-c3ccc4ccc5cccc6ccc3c4c56)ccn2)nc1
absorption maximum (in C1CCOC1): 344 nm
absorption maximum (in CC#N): 342.99 nm
absorption maximum (in CCC#N): 342.99 nm
absorption maximum (in CCCC#N): 344 nm
absorption maximum (in CCCCCC): 342 nm
absorption maximum (in CCCO): 342.99 nm
absorption maximum (in CCO): 342.99 nm
absorption maximum (in CO): 342.99 nm
absorption maximum (in Cc1ccccc1): 342.99 nm

SMILES: CC[N+]1(CC)CN2C(=N1)C(C(=O)O)=Cc1cc(Cl)ccc12
absorption maximum (in O): 377 nm

SMILES: Cn1c(=O)c(/N=N/c2ccc(S(=O)(=O)O)c3ccccc23)c(O)c2ccccc21
absorption maximum (in C1CCOC1): 467 nm
absorption maximum (in CC(C)=O): 465 nm
absorption maximum (in CCOC(C)=O): 464 nm
absorption maximum (in CO): 468 nm
absorption maximum (in CS(C)=O): 470 nm
absorption maximum (in Cc1ccccc1): 469 nm
absorption maximum (in ClCCl): 467 nm
absorption maximum (in O): 456 nm

SMILES: CC(C)(C)c1ccc2c(c1)c1cc(C(C)(C)C)ccc1n2-c1ccc(-c2nc3c(C#N)ccc(C#N)c3nc2-c2ccc(-n3c4ccc(C(C)(C)C)cc4c4cc(C(C)(C)C)ccc43)cc2)cc1
absorption maximum (in Cc1ccccc1): 467 nm

SMILES: CC(C)(C)OC(=O)NC(Cc1ccccc1)C(=O)OCc1ccc2c3cccc4cccc(c5cccc1c52)c43 (configuration not stated)
absorption maximum (in CCO): 440 nm

SMILES: N#Cc1ccc(N2c3ccccc3C(c3ccccc3)(c3ccccc3)c3ccccc32)cc1
absorption maximum (in Cc1ccccc1): 352 nm

SMILES: CCCCC1(c2ccccc2)Nc2c(-c3ccc(N(C)c4ccccc4)cc3)ccc(-c3ccc(N(C)c4ccccc4)cc3)c2N=C1c1ccccc1 (configuration not stated)
absorption maximum (in ClC(Cl)Cl): 380 nm

SMILES: FC(F)(F)C(F)(F)C(F)(F)C1=NC2=C(c3ccccc3)C=C3c4cc(-c5ccccc5)c5nc(C(F)(F)C(F)(F)C(F)(F)F)nc6c(-c7ccccc7)cc(c4c56)=C4C=C(c5ccccc5)C(=N1)C2C34 (configuration not stated)
absorption maximum (in C1CCOC1): 500 nm

SMILES: C1=Cc2ccc(N(c3ccccc3)c3cccc4ccccc34)cc2C2(c3cc(N(c4ccccc4)c4cccc5ccccc45)ccc31)c1ccccc1-c1ccccc12
absorption maximum (in ClCCl): 403 nm

SMILES: [NH3+]c1cc([NH3+])cc(-c2[nH+]c3ccccc3s2)c1
absorption maximum (in O): 328 nm

SMILES: Clc1ccccc1-c1nc2sc3ccccc3c2s1
absorption maximum (in CS(C)=O): 347 nm

SMILES: CCc1ccc(/C=C/c2ccc(-c3nnc(-c4ccc(-c5cc6ccccc6s5)cc4)o3)cc2)cc1
absorption maximum (in CC#N): 342 nm
absorption maximum (in CC(C)=O): 347 nm
absorption maximum (in CCCCCCCC): 341 nm
absorption maximum (in CCCCCCCCCCO): 357 nm
absorption maximum (in CCCCCCCCO): 357 nm
absorption maximum (in CCCCCO): 354 nm
absorption maximum (in CCCO): 347 nm
absorption maximum (in CN(C)C=O): 355 nm
absorption maximum (in CO): 326 nm
absorption maximum (in CS(C)=O): 350 nm

SMILES: CC(C)(C)c1ccc2c(c1)c1cc(C(C)(C)C)ccc1n2-c1ccc(C#Cc2ccc(C=C(C#N)C#N)cc2)cc1
absorption maximum (in CC#N): 346 nm
absorption maximum (in CCCCC): 345 nm
absorption maximum (in Cc1ccccc1): 348 nm
absorption maximum (in ClCCl): 410 nm

SMILES: CCCCCCCCCCCCCCCCCC(=O)Oc1cc2[nH]c(cc2CCOC)c2nc(ccc3[nH]c(cc3CCOC)c3nc1C(CCOC)=C3)C(CCOC)=C2
absorption maximum (in Cc1ccccc1): 646 nm

Next, values leading:

absorption maximum (in CC#N): 382 nm
SMILES: N#C/C(=C\c1ccc([N+](=O)[O-])cc1)c1nc(-c2ccccc2)cs1

absorption maximum (in ClCCl): 330 nm
SMILES: COc1ccc(-c2cnc(-c3cccnc3)o2)cc1OC

absorption maximum (in CC#N): 432 nm
absorption maximum (in O): 440 nm
SMILES: COc1ccc2c(c1)[n+]([O-])nc(N)[n+]2[O-]

absorption maximum (in CCOC(C)=O): 259 nm
SMILES: CCn1c(-c2ccc(OC)cc2)c(-c2ccc3ccccc3c2)c(-c2ccc3ccccc3c2)c1-c1ccc(OC)cc1

absorption maximum (in CCCCCC): 352 nm
absorption maximum (in CO): 351 nm
absorption maximum (in ClCCl): 354 nm
SMILES: CCCCc1ccc2ccc3c(CCCC)cc(CCCC)c4ccc1c2c34

absorption maximum (in ClCCl): 300 nm
SMILES: O=P(c1ccccc1)(c1ccccc1)c1cccc(-n2c(-c3ccccc3P(=O)(c3ccccc3)c3ccccc3)nc3ccccc32)c1

absorption maximum (in C1CCOC1): 330 nm
SMILES: C(=C(c1ccccc1)c1ccccc1)c1ccc(-c2cc(-c3ccc(C=C(c4ccccc4)c4ccccc4)cc3)c(-c3ccc(C=C(c4ccccc4)c4ccccc4)cc3)cc2-c2ccc(C=C(c3ccccc3)c3ccccc3)cc2)cc1

absorption maximum (in C1CCCCC1): 305 nm
SMILES: COc1ccc(-c2ccc(-c3ccc(C#N)cc3)cc2)cc1

absorption maximum (in CN(C)C=O): 592 nm
absorption maximum (in ClC(Cl)Cl): 590 nm
SMILES: CCCCCCCCCCCCOc1cc2c(cc1OCCCCCCCCCCCC)C1=C3C(=O)N4C=Cc5cc(OCCCCCCCCCCCC)c(OCCCCCCCCCCCC)cc5C4=C3C(=O)N1C=C2

absorption maximum (in C1COCCO1): 526 nm
absorption maximum (in CS(C)=O): 553 nm
SMILES: O=C1/C(=C2\Sc3ccc(S(=O)(=O)Cl)cc3C2=O)Sc2ccc(S(=O)(=O)Cl)cc21

absorption maximum (in CC#N): 501 nm
absorption maximum (in CCCCCC): 506 nm
absorption maximum (in CO): 503 nm
absorption maximum (in ClC(Cl)Cl): 509 nm
absorption maximum (in ClCCl): 506 nm
SMILES: CC1=CC(C)=[N+]2C1=C(c1ccc3cccnc3n1)c1c(C)cc(C)n1[B-]2(F)F

absorption maximum (in CCCCCC): 560 nm
absorption maximum (in CCOC(C)=O): 554 nm
absorption maximum (in ClCCl): 558 nm
SMILES: N#CSC1=CC2=C(c3ccccc3)c3ccc(SC#N)n3[B-](F)(F)[N+]2=C1N1CCOCC1

absorption maximum (in ClC(Cl)Cl): 329 nm
SMILES: COc1cc(-c2cc(-c3ccccc3)c(-c3ccccc3)c(-c3ccccc3)c2-c2ccccc2)c(OC)cc1-c1ccc(N(C)C)cc1

absorption maximum (in C1CCOC1): 397.48 nm
SMILES: CC(C)(C)c1ccc(-c2nc(-c3ccc(C(C)(C)C)cc3)nc(-c3cc(C#N)c(-n4c5ccccc5c5c6oc7ccccc7c6ccc54)c(C#N)c3)n2)cc1

absorption maximum (in C1CCCCC1): 568 nm
absorption maximum (in CCOC(C)=O): 568 nm
SMILES: C#CCNC1=C2C=C(c3cc4n(c3)[B-](F)(F)[N+]3=CC=CC3=C4c3c(C)cc(C)cc3C)C(C)=[N+]2[B-](F)(F)n2c(C)ccc21

absorption maximum (in ClC(Cl)Cl): 485 nm
SMILES: N#Cc1nc(N(Cc2ccc(Cl)cc2)Cc2ccc(Cl)cc2)c(C#N)nc1N(Cc1ccc(Cl)cc1)Cc1ccc(Cl)cc1

absorption maximum (in ClCCl): 388 nm
SMILES: CCOC(=O)/N=c1/oc2ccc(OC)cc2cc1C#N

absorption maximum (in ClC(Cl)Cl): 455 nm
SMILES: COc1cc(C=C(C#Cc2ccccc2)C#Cc2ccccc2)c(OC)cc1C=C(C#Cc1ccccc1)C#Cc1ccccc1

absorption maximum (in CN(C)C=O): 383 nm
SMILES: CCN(CC)c1ccc(-c2nc(Oc3ccc(-c4nc5cc([N+](=O)[O-])ccc5[nH]4)cc3)nc(Oc3ccc(-c4nc5cc([N+](=O)[O-])ccc5[nH]4)cc3)n2)cc1

absorption maximum (in ClCCl): 359 nm
SMILES: COc1ccc(/C=C/c2cc(/C=C/c3ccc(OC)cc3)ncn2)cc1

absorption maximum (in C1CCCCC1): 291.46 nm and 286 nm
SMILES: c1ccc2ccccc2c1

absorption maximum (in ClC(Cl)Cl): 505 nm
SMILES: CO[B-]1(OC)n2c(C)cc(C)c2C(c2ccc(I)cc2)=C2C(C)=CC(C)=[N+]21

absorption maximum (in CC#N): 514 nm
absorption maximum (in CS(C)=O): 524 nm
SMILES: [O-]c1c(-c2nc3ccccc3s2)cc2ccc3cccc4ccc1c2c34

absorption maximum (in ClC(Cl)Cl): 570 nm
SMILES: CCCCCCCCCCCCOc1cc2c3c(ccc4c5c(OCCCCCCCCCCCC)cc6c7c(ccc(c1c34)c75)C(=O)N(C1CCCCC1)C6=O)C(=O)N(C1CCCCC1)C2=O

absorption maximum (in ClCCl): 689 nm
SMILES: CCN(CC)c1ccc2c(-c3ccccc3C(=O)O)c3c([o+]c2c1)/C(=C/c1ccc(N(C)C)cc1)CCC3

absorption maximum (in CC#N): 500 nm
absorption maximum (in CCO): 499 nm
absorption maximum (in CN(C)C=O): 515 nm
absorption maximum (in O): 497 nm
SMILES: Nc1ccc2c(-c3ccccc3C(=O)[O-])c3ccc(=[NH2+])cc-3oc2c1

absorption maximum (in ClCCl): 477 nm
SMILES: CCCCN(CCCC)c1ccc2c(c1)C#CC#Cc1cc(C(F)(F)F)ccc1C#Cc1cc(c3cc1C#Cc1ccc(N(CCCC)CCCC)cc1C#CC#Cc1cc(C(F)(F)F)ccc1C#C3)C#C2

absorption maximum (in ClCCl): 465 nm
SMILES: COCCOCCOCCOCC(COCCOCCOCCOC)Oc1cc(/C=C/c2ccc(C=C(C#N)C#N)cc2)c(OC(COCCOCCOCCOC)COCCOCCOCCOC)cc1/C=C/c1ccc(C=C(C#N)C#N)cc1

absorption maximum (in C1CCOC1): 382 nm
SMILES: CCC1(CC)c2ccccc2-c2c1c1c(c3c2C(CC)(CC)c2cc(/C=C/c4cccs4)ccc2-3)C(CC)(CC)c2ccccc2-1

absorption maximum (in CN(C)C=O): 661 nm
absorption maximum (in ClCCl): 426 nm
SMILES: C1=Cc2nc1c(-c1cccs1)c1ccc([nH]1)c(-c1cccs1)c1nc(c(-c3cccs3)c3ccc([nH]3)c2-c2cccs2)C=C1

absorption maximum (in ClCCl): 350 nm
SMILES: CC(C)(C)C1CCC(=CS/C=C/c2ccc(-c3ccc(/C=C/SC=C4CCC(C(C)(C)C)CC4)cc3)cc2)CC1 (configuration not stated)

absorption maximum (in C1COCCO1): 458 nm
absorption maximum (in CC#N): 462 nm
absorption maximum (in ClCCl): 468 nm
SMILES: CCCCN(CCCC)c1ccc(/C=C/c2ccc3nc(-c4ccccc4)c(/C=C/c4ccc(N(C)C)cc4)nc3c2)cc1
